Measured values as given in US9107964B2, “Radioactive fluorine-labeled compound” (NIHON MEDI-PHYSICS CO., LTD., priority 2011, dated 2015).
“Also recorded” adds a separate entry of the source.

Experiments:
Format in all cases: in vivo, mouse (Balb/c nu/nu)
[1] = test system: EMT6 tumor-bearing model mice; assay: Biodistribution in tumor and organs of tumor-bearing mouse (Example 14); settings: for Blood / Gall bladder / Heart / Kidney / Large intestine / Liver / Lung / Muscle / Small intestine / Stomach / T/B (tumor/blood ratio) / T/M (tumor/muscle ratio) / Tumor / Urine: mean; for Blood clearance and urinary excretion: compared with [^18F]FMISO, 60 and 120 minutes after administration
Procedure: The biodistribution of compounds 1 to 3 and [^18F]FMISO in a tumor and each of the organs of a tumor-bearing mouse was measured.
Tumor-bearing model mice used in this experiment were the same as those prepared in Example 10, and 3 or 4 cases that had attained a tumor volume of 200 to 400 mm^3 were selected from each group. The tumor-bearing model mouse was placed under isoflurane anesthesia, pimonidazole that is a hypoxic marker, was administered via a tail vein, and at 10 minutes thereafter, the respective labeled compound was administered. The tumor-bearing model mouse was sacrificed at 60 minutes and 120 minutes after administration. All of the tumor-bearing model mice were sacrificed by blood-letting from the abdominal aorta or by cardiocentesis, and dissection was carried out immediately thereafter. Other than the tumor, the blood, heart, lung, stomach, liver, gallbladder, kidney, small intestine and large intestine, muscle, and urine were sampled, and the other tissues were defined as the remaining whole body. After the weight of each tissue sampled was measured, the amount of radioactivity of the tissue was measured using a gamma counter, and the biodistribution of each of the labeled compounds was compared by converting it into % ID/g (% injection dose/g organ) of each tissue.
In order to examine a hypoxic state within the tumor, immunohistochemical staining of the sample tumor was carried out so as to ascertain whether or not the interior of the tumor was hypoxic. The sampled tumor was fixed using a 20% formalin buffer, and a paraffin block was prepared using an automatic paraffin-embedding apparatus (model: VIP-5-Jr-J0, Sakura Finetek). A slice (thickness: 3 μm) was prepared by means of a microtome (model: Tissue-Tek Feather Trustome, Sakura Finetek). Immunohistochemical staining was carried out by the same method as in Example 12.

[2] = test system: mouse-derived breast cancer cell line (EMT6) tumor-bearing model mice; assay: PET imaging of tumor-bearing model mice (incorporation into tumor cells, Example 10); settings: 60 minutes after administration; for Physiological accumulation in the liver compared with [^18F]FMISO: coronal tomographic PET image; for Excretion route: from coronal tomographic PET image
Procedure: Accumulation of compound 1, compound 2, and compound 3 in tumor cells in vivo was studied as follows using a mouse-derived breast cancer cell line (EMT6).
Preparation of tumor-bearing model mice: the animals used were six-week-old female Balb/c nu/nu mice (obtained from Japan SLC). Using these animals, a Matrigel suspension (cell count 2.5×10^6 cells/0.05 mL) of EMT6, which is a mouse-derived breast cancer cell line (obtained from ATCC), was subcutaneously implanted in a site from the right rib to the right shoulder. It was confirmed on the third day after implantation that the tumor cells were fixed, and the tumor volume attained 200 to 400 mm^3 9 to 11 days after implantation.

[3] = test system: hypoxic region of EMT6 tumor (pimonidazole-positive area); assay: Correlation between autoradiographic signal intensity (PSL value) and pimonidazole-positive area (Example 13); settings: tumor tissue sections after PET imaging
Procedure: In order to evaluate whether or not the compound related to the present invention can quantitatively visualize a hypoxic region of a tumor, the following experiment was carried out using compounds 1 to 3 and [^18F]FMISO.
Using a microscope system (model: BZ-9000, Keyence Corporation) a high magnification image of a pimonidazole-positive site was acquired using the entire image of a pathology image obtained by immunohistochemical staining in the Example 12 and a 10× objective lens. The high magnification image was formed with respect to a randomly selected image region. At the same time the image acquisition site was recorded as a navigation image by use of the navigation function of the microscope system. The acquired high magnification image was subjected to image processing, and a pimonidazole-positive area present in the high magnification image was determined.
The autoradiographic image and the stained image of each labeled compound used were those acquired in the Example 12. The resolution of the navigation image was made to match the resolution of the autoradiographic image, and the geometrical positions of two images were aligned using image analysis software.
In the autoradiographic image, an ROI was set for the site that coincided with the high magnification image acquisition site, and the PSL value (Photo-Stimulated Luminescence value) of the ROI was determined. Furthermore, an ROI was set for a site of the same image that contained no sample, and the PSL value thereof was defined as the background. The PSL value of the background was subtracted from the PSL value of the high magnification image acquisition site to obtain the net PSL value. The hypoxic marker pimonidazole-positive area was plotted on the abscissa and the PSL value in the autoradiographic image on the ordinate, and the correlation factor was determined. This series of operations was carried out for each of the labeled compounds.

[4] = 60 minutes after administration
[5] = 120 minutes after administration

SMILES	Blood [1, 4] [% ID/g]	Gall bladder [1, 4] [% ID/g]	Heart [1, 4] [% ID/g]	Kidney [1, 4] [% ID/g]	Large intestine [1, 4] [% ID/g]	Liver [1, 4] [% ID/g]	Lung [1, 4] [% ID/g]	Muscle [1, 4] [% ID/g]	Small intestine [1, 4] [% ID/g]	Stomach [1, 4] [% ID/g]	T/B (tumor/blood ratio) [1, 4]	T/M (tumor/muscle ratio) [1, 4]	Tumor [1, 4] [% ID/g]	Urine [1, 4] [% ID]	Blood [1, 5] [% ID/g]	Gall bladder [1, 5] [% ID/g]	Heart [1, 5] [% ID/g]	Kidney [1, 5] [% ID/g]	Large intestine [1, 5] [% ID/g]	Liver [1, 5] [% ID/g]	further results
O=[N+]([O-])c1nc(CO)cn1CC(CO)(CO)C[18F] [Compound 2, 1-(2,2-Dihydroxymethyl-3-[^18F]fluoropropyl)-4-hydroxymethyl-2-nitroimidazole]	0.60	7.54	1.32	1.86	0.96	1.14	0.89	1.25	2.35	0.48	2.11	0.91	1.13	80.42	0.25	7.33	0.74	0.82	0.88	0.54	Lung [1, 5]: 0.34 % ID/g; Muscle [1, 5]: 0.47 % ID/g; Small intestine [1, 5]: 1.63 % ID/g; Stomach [1, 5]: 0.25 % ID/g; T/B (tumor/blood ratio) [1, 5]: 3.18; T/M (tumor/muscle ratio) [1, 5]: 1.68; Tumor [1, 5]: 0.78 % ID/g; Urine [1, 5]: 90.92 % ID; Blood clearance and urinary excretion [1]: even more rapid; Sites of accumulation on coronal tomographic image [2]: intense accumulation of compound 2 and compound 3 was found in the bladder and accumulation thereof was found in the intestinal tract; Tumor-specific accumulation on axial tomographic image [2]: tumor-specific accumulation; Physiological accumulation in the liver compared with [^18F]FMISO [2]: low physiological accumulation in the liver; Excretion route [2]: excreted mainly via the kidney and urinary tract system; Correlation coefficient (pimonidazole-positive area vs PSL value in autoradiographic image) [3]: 0.80
O=[N+]([O-])c1nccn1CCC(CO)(CO)C[18F] [Compound 3, 1-(3,3-Dihydroxymethyl-4-[^18F]fluorobutyl)-2-nitroimidazole]	2.81	16.71	3.46	9.95	5.40	4.46	2.92	2.66	4.68	1.99	0.86	0.87	2.05	45.80	1.14	15.45	1.82	9.20	6.89	2.13	Lung [1, 5]: 1.38 % ID/g; Muscle [1, 5]: 1.44 % ID/g; Small intestine [1, 5]: 3.66 % ID/g; Stomach [1, 5]: 1.26 % ID/g; T/B (tumor/blood ratio) [1, 5]: 2.11; T/M (tumor/muscle ratio) [1, 5]: 1.62; Tumor [1, 5]: 1.93 % ID/g; Urine [1, 5]: 68.78 % ID; Blood clearance and urinary excretion [1]: rapid blood clearance and urinary excretion compared with [^18F]FMISO; Sites of accumulation on coronal tomographic image [2]: intense accumulation of compound 2 and compound 3 was found in the bladder and accumulation thereof was found in the intestinal tract; also recorded: accumulation of compound 3 in the gallbladder; Tumor-specific accumulation on axial tomographic image [2]: tumor-specific accumulation; Physiological accumulation in the liver compared with [^18F]FMISO [2]: low physiological accumulation in the liver; Excretion route [2]: excreted via the kidney and urinary tract system and the hepatobiliary system; Correlation coefficient (pimonidazole-positive area vs PSL value in autoradiographic image) [3]: 0.61
O=[N+]([O-])c1nccn1CC(CO)(CO)C[18F] [Compound 1, 1-(2,2-Dihydroxymethyl-3-[^18F]fluoropropyl)-2-nitroimidazole]	1.70	26.34	2.35	4.23	3.71	3.34	1.96	1.71	3.72	1.53	1.42	1.39	2.38	62.13	0.75	8.21	1.90	2.91	2.37	4.31	Lung [1, 5]: 0.89 % ID/g; Muscle [1, 5]: 0.84 % ID/g; Small intestine [1, 5]: 2.78 % ID/g; Stomach [1, 5]: 0.88 % ID/g; T/B (tumor/blood ratio) [1, 5]: 2.47; T/M (tumor/muscle ratio) [1, 5]: 2.03; Tumor [1, 5]: 1.65 % ID/g; Urine [1, 5]: 77.76 % ID; Blood clearance and urinary excretion [1]: rapid blood clearance and urinary excretion compared with [^18F]FMISO; Sites of accumulation on coronal tomographic image [2]: intense accumulation of compound 1 in the bladder, and accumulation thereof in the gallbladder and the intestinal tract; Tumor-specific accumulation on axial tomographic image [2]: tumor-specific accumulation separated from normal tissue such as muscle; Physiological accumulation in the liver compared with [^18F]FMISO [2]: low physiological accumulation in the liver; Excretion route [2]: excreted via the kidney and urinary tract excretion and hepatobiliary excretion systems; Correlation coefficient (pimonidazole-positive area vs PSL value in autoradiographic image) [3]: 0.85
